# Source: patent US20220154282A1, “DETECTION MEANS, COMPOSITIONS AND METHODS FOR MODULATING SYNOVIAL SARCOMA CELLS” (The Broad Institute, Inc., priority 2019, published 2022)
# System: Aska and SYO1 SyS cell lines
# Experiment: SS18-SSX knockdown (shSSX vs shCt) with scRNA-Seq readout
# Format: cell-based, human
# Source text: To decouple the intrinsic and extrinsic factor determining the malignant cell states in SyS Applicants first tested whether the core oncogenic and other programs were co-regulated by the genetic fusion driving SyS. Applicants turned to explore the potential regulators of these cellular programs, starting from the genetic driver. To this end, they depleted SS18-SSX in two SyS cell lines (SYO1 and Aska) using shRNA and profiled 12,263 cells with scRNA-Seq. The fusion KD led to massive and highly consistent transcriptional alternation in both cell lines (FIG. 7A, Tables 8, 9). […] Leveraging the single-cell readout Applicants confirmed that the KD impact on the core oncogenic and differentiation programs was decoupled from, and not secondary to, the repression of cellular proliferation (FIG. 7B), such that the impact on the core oncogenic and differentiation programs was observed even when controlling for the cycling status of the cells, and when considering only cycling or non-cycling cells (P<1.54*10^−13, t-test, FIG. 5B, METHODS). Thus, the fusion's impact on cell cycle may be secondary or downstream to its impact on the core oncogenic program. In addition, the fusion KD led to an induction of antigen presentation and cell autonomous immune responses, such as TNF and IFN signaling (P<1*10^−30, mixed-effects, FIG. 8A).
# The SyS cell lines Aska and SYO1 were cultured using standard protocols in DMEM medium (Gibco) supplemented with 10-20% fetal bovine serum, 1% Glutamax (Gibco), 1% Sodium Pyruvate (Gibco) and 1% Penicillin-Streptomycin (Gibco) and grown in a humidified incubator at 37° C. with 5% CO2. Cells expressing a pLKO.1 vector with a scrambled shRNA hairpin control (5′-[…] CTTAGG-3′) (SEQ ID NO: 5) or a shSSX hairpin targeting SSX of the SS18-SSX fusion (5′-[…]-3′) (SEQ ID NO: 6) were prepared by lentiviral infection. In brief, lentivirus was prepared by transfection of HEK293T cells with gene delivery vector and the packaging vectors pspax2 and pMD2.G, filtration of media followed by ultracentrifugation, and then resuspension of viral pellet in PBS. Aska and SYO1 cells were infected with lentivirus for 48 hours and then underwent 5 days of selection with puromycin (2 μg/mL) prior to collection for single cell RNA-seq analysis.
# The fusion program consists of genes that were differentially expressed in the Aska or SYO1 cells with the SS18-SSX shRNA (shSSX) compared to those with control shRNA (shCt) after 3 or 7 days post-infection. Gene that were previously reported (35, 36) to be bound by the SS18-SSX oncoprotein in at least two SyS cell lines were defined as direct SS18-SSX targets, and were used to stratify the SS18-SSX program to direct and indirect targets.
# [1] = SSX shRNA (shSSX) vs control shRNA (shCt), ASKA and SYO1 cells, scRNA-Seq
substance,measurement,setting,value
"shSSX: shSSX hairpin targeting SSX of the SS18-SSX fusion (5′-CAGTCACTGACAGTTAATAAA-3′), pLKO.1 lentiviral vector",mesenchymal differentiation program,[1],induced
same,overall expression of the cell cycle program,[1],repressed
same,overall expression of the core oncogenic program,[1],repressed
same,immune responses (topmost differentially expressed pathways),"shSSX vs shCt, SyS cells stratified by cycling status",inducing multiple immune responses
